From patent US20250214977A1, “STAT6 INHIBITORS AND USES THEREOF” (Kymera Therapeutics, Inc., priority 2024, published 2025)

System: Phosphorylation of STAT6 in human A549 cells
Experiment: Phosphorylated STAT6 (pSTAT6) flow cytometry assay in human A549 cells
Type: cell-based
Details: read-out: STAT6 IL4 pSTAT6 assay in A549 cells: Average IC50
Source text: Example 3. Phosphorylated STAT6 (pSTAT6) Flow Cytometry Assay in Human A549 Cells
Phosphorylation of STAT6 in human A549 cells was quantitatively measured using flow cytometry technology.

Compound | IC50
COc1ccccc1-c1cc(C2=CCCN(C(=O)CCn3ccnn3)C2)c(F)c2[nH]c(C(=O)N3CCN(c4nc(C)cs4)CC3)cc12 [Example I-1024] | < 100 nM
COc1ccccc1-c1cc(C2=CCCN(C(=O)CCn3ccnn3)C2)c(F)c2[nH]c(C(=O)N3CCN(c4ccnn4C)CC3)cc12 [Example I-1025] | < 100 nM
COc1ccccc1-c1cc(C2=CCCN(C(=O)CCn3ccnn3)C2)c(F)c2[nH]c(C(=O)N3CCN(c4cncn4C)CC3)cc12 [Example I-1026] | < 100 nM
COc1ccccc1-c1cc(C2=CCCN(C(=O)CCn3ccnn3)C2)c(F)c2[nH]c(C(=O)Nc3cccn(C)c3=O)cc12 [Example I-1027] | 100 to 1000 nM
COCc1cccc(NC(=O)c2cc3c(-c4ccccc4OC)cc(C4=CCCN(C(=O)CCn5ccnn5)C4)c(F)c3[nH]2)c1 [Example I-1028] | 1000 to 10000 nM
COc1ccccc1-c1cc(C2=CCCN(C(=O)CCn3ccnn3)C2)c(F)c2[nH]c(C(=O)N3CCc4nocc4C3)cc12 [Example I-1029] | < 100 nM
COc1ccccc1-c1cc(C2=CCCN(C(=O)CCn3ccnn3)C2)c(F)c2[nH]c(C(=O)N3CCN(c4c(C)cc[nH]c4=O)CC3)cc12 [Example I-1030] | < 100 nM
COc1ccccc1-c1cc(C2=CCCN(C(=O)CCn3ccnn3)C2)c(F)c2[nH]c(C(=O)N3CCC(=O)C3)cc12 [Example I-1031] | < 100 nM
COc1ccccc1-c1cc(C2=CCCN(C(=O)CCn3ccnn3)C2)c(F)c2[nH]c(C(=O)N3CCN(c4cc(C)c(O)c(C)c4)CC3)cc12 [Example I-1032] | 100 to 1000 nM
COc1ccccc1-c1cc(C2=CCCN(C(=O)CCn3ccnn3)C2)c(F)c2[nH]c(C(=O)N3CCN(c4ncn5c4CCCC5)CC3)cc12 [Example I-1034] | < 100 nM
COc1ccccc1-c1cc(C2=CCCN(C(=O)CCn3ccnn3)C2)c(F)c2[nH]c(C(=O)N3CC4CN(c5ncccc5OC)CC4C3)cc12 (stereo not drawn) [Example I-1035] | 100 to 1000 nM
CCOc1ccncc1-c1cc(C2=CCCN(C(=O)CCn3ccnn3)C2)c(F)c2[nH]c(C(=O)N3CCN(c4cnc(C)nc4OC)CC3)cc12 [Example I-1036] | < 100 nM
COc1cc(Cl)cnc1N1CCN(C(=O)c2cc3c(-c4cnc5ccccc5c4OC)cc(C4=CCCN(C(=O)CCn5ccnn5)C4)c(F)c3[nH]2)CC1 [Example I-1037] | 100 to 1000 nM
COc1cccc(N2CCN(C(=O)c3cc4c(-c5cnc6ccccc6c5OC)cc(C5=CCCN(C(=O)CCn6ccnn6)C5)c(F)c4[nH]3)CC2)n1 [Example I-1038] | 100 to 1000 nM
COc1cc(N(C)C)ccc1-c1cc(C2=CCCN(C(=O)CCn3ccnn3)C2)c(F)c2[nH]c(C(=O)N3CCN(c4ncc(Cl)cc4OC)CC3)cc12 [Example I-1039] | < 100 nM
CCc1ccncc1-c1cc(C2=CCCN(C(=O)CCn3ccnn3)C2)c(F)c2[nH]c(C(=O)N3CCN(c4ncc(C(F)(F)F)cc4OC)CC3)cc12 [Example I-1040] | < 100 nM
CCOc1ccncc1-c1cc(C2=CCCN(C(=O)CCn3ccnn3)C2)c(F)c2[nH]c(C(=O)N3CCN(c4ncc(C)nc4OC)CC3)cc12 [Example I-1041] | < 100 nM
CN(C(=O)c1cc2c(-c3cncnc3C3CC3)cc(C3=CCCN(C(=O)CCn4ccnn4)C3)c(F)c2[nH]1)C1CC1 [Example I-1043] | > 100000 nM
CCc1ccncc1-c1cc(C2=CCCN(C(=O)C(C)C)C2)c(F)c2[nH]c(C(=O)N3CCN(c4ncc(F)cc4OC)CC3)cc12 [Example I-1044] | 1000 to 10000 nM
CCn1nccc1-c1cc(C(=O)N2Cc3cnn(CC)c3C2)cc2cc(C3=CCCN(C(C)=O)C3)n(CC3CC3)c12 [Example I-1045] | 100 to 1000 nM
CCc1ccc(-c2cc(C(=O)N3Cc4cnn(CC)c4C3)cc3cc(C4=CCCN(C(C)=O)C4)n(CC4CC4)c23)c(C)n1 [Example I-1046] | 100 to 1000 nM
CN(C)C(=O)c1cc2cc(C3=CCCN(C(=O)CCn4ccnn4)C3)cc(C3CCNCC3)c2o1 [Example I-1048] | < 100 nM
COC(=O)c1cnn(-c2cc(C3=CCCN(C(=O)CCn4ccnn4)C3)cc3cc(C(=O)N(C)C)oc23)c1 [Example I-1049] | 100 to 1000 nM

Compound | IC50
CNc1ccc(-c2cc(C3=CCCN(C(=O)CCn4ccnn4)C3)cc3[nH]c(C(=O)N(C)C)cc23)c(Cl)c1 [Example I-1050] | < 100 nM
CNc1ccc(-c2cc(C3=CCCN(C(=O)CCn4ccnn4)C3)cc3[nH]c(C(=O)N(C)C)cc23)c(OC)c1 [Example I-1051] | > 100000 nM
CN(C)C(=O)c1cc2c(F)c(C3=CCCN(C(=O)CCn4ccnn4)C3)ccc2o1 [Example I-1052] | < 100 nM
CNc1ccc(-c2cc(C3=CCCN(C(=O)CCn4ccnn4)C3)cc3[nH]c(C(=O)N(C)C)cc23)c(C)c1 [Example I-1053] | < 100 nM
COc1ccccc1-c1cc(C2=CCCN(C(=O)CCn3ccnn3)C2)cc2[nH]c(C(=O)N(C)C)cc12 [Example I-1054] | < 100 nM
COc1cc(F)ccc1-c1cc(C2=CCCN(C(=O)CCn3ccnn3)C2)cc2[nH]c(C(=O)N(C)C)cc12 [Example I-1055] | < 100 nM
CNc1ccc(-c2cc(C3=CCCN(C(=O)CCn4ccnn4)C3)cc3cc(C(=O)N(C)C)oc23)c(OC)c1 [Example I-1056] | < 100 nM
COc1ccc(C)cc1-c1cc(C2=CCCN(C(=O)CCn3ccnn3)C2)cc2[nH]c(C(=O)N(C)C)cc12 [Example I-1057] | < 100 nM
COc1ccc(Cl)cc1-c1cc(C2=CCCN(C(=O)CCn3ccnn3)C2)cc2[nH]c(C(=O)N(C)C)cc12 [Example I-1058] | < 100 nM
CNc1ccc(-c2cc(C3=CCCN(C(=O)CCn4ccnn4)C3)c(F)c3[nH]c(C(=O)N(C)C)cc23)c(OC)c1 [Example I-1059] | < 100 nM
COc1cnccc1-c1cc(C2=CCCN(C(=O)CCn3ccnn3)C2)cc2[nH]c(C(=O)N(C)C)cc12 [Example I-1060] | < 100 nM
Cc1ccc(Cl)c(-c2cc(C3=CCCN(C(=O)CCn4ccnn4)C3)cc3[nH]c(C(=O)N(C)C)cc23)c1 [Example I-1061] | < 100 nM
COc1ccc(Cl)c(-c2cc(C3=CCCN(C(=O)CCn4ccnn4)C3)cc3[nH]c(C(=O)N(C)C)cc23)c1 [Example I-1062] | < 100 nM
CNc1ccc(-c2cc(C3=CCCN(C(=O)C4Cc5c(N)cccc5CN4C=O)C3)cc3cc(C(=O)N(C)C)oc23)c(OC)c1 (stereo not drawn) [Example I-1063] | < 100 nM
COc1ccncc1-c1cc(C2=CCCN(C(=O)CCn3ccnn3)C2)c(F)c2[nH]c(C(=O)N(C)C)cc12 [Example I-1065] | < 100 nM
CN(C)C(=O)c1cc2c(-c3cc4cc[nH]c4cc3Cl)cc(C3=CCCN(C(=O)CCn4ccnn4)C3)cc2[nH]1 [Example I-1066] | < 100 nM
COc1cnccc1-c1cc(C2=CCCN(C(=O)CCn3ccnn3)C2)cc2cc(C(=O)N(C)C)oc12 [Example I-1067] | < 100 nM
CN(C)C(=O)c1cc2c(-c3ccccc3S(C)(=O)=O)cc(C3=CCCN(C(=O)CCn4ccnn4)C3)c(F)c2[nH]1 [Example I-1068] | < 100 nM
COc1ccccc1-c1cc(C2=CCCN(C(C)=O)C2)c(F)c2[nH]c(C(=O)N(C)C)cc12 [Example I-1069] | < 100 nM
Cc1cc(-c2cc(C3=CCCN(C(=O)CCn4ccnn4)C3)cc3cc(C(=O)N(C)C)oc23)n(C)n1 [Example I-1070] | < 100 nM
CN(C)C(=O)c1cc2cc(C3=CCCN(C(=O)CCn4ccnn4)C3)cc(-c3ccc4[nH]ccc4c3)c2o1 [Example I-1071] | < 100 nM
CN(C)C(=O)c1cc2cc(C3=CCCN(C(=O)CCn4ccnn4)C3)cc(-c3ccc4cnn(C)c4c3)c2o1 [Example I-1072] | < 100 nM
